This test concerns the target CsTMR (triphenylmethane reductase) (Citrobacter sp. MY-5, UniProt Q2TNI4). The test is described as follows: decolorization in bienzyme fed-batch system; OD616 assay. Type of test: biochemical. As to conditions: glucose 200 mM, NAD 1 mM, malachite green 3 µM, BzGDH for NADH regeneration, 25 °C; OD616 assay: 200 µM NADH, 20 µM malachite green, pH 7.0.

The text below walks through data of PMC6928599, “Construction of a Robust Cofactor Self-Sufficient Bienzyme Biocatalytic System for Dye Decolorization and its Mathematical Modeling” (International Journal of Molecular Sciences, 2019).

Sequence of CsTMR (triphenylmethane reductase) (Q2TNI4 entry or part of it): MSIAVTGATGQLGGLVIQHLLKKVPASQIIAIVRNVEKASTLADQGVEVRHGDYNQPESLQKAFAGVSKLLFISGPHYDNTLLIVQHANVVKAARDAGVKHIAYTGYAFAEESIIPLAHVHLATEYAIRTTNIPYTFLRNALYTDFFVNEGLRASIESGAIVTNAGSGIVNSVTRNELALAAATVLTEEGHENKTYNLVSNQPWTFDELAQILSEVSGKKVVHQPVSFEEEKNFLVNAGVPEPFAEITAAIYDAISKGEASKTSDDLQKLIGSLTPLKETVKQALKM

As for `CN(C)c1ccc(C(=C2C=CC(=[N+](C)C)C=C2)c2ccccc2)cc1` [malachite green], the “decolorization in bienzyme fed-batch system; OD616 assay” value is given as “The activity of CsTMR was assayed by monitoring the OD616 of malachite green”.
